Results published in patent US20250034216A1, “STEREOSELECTIVE COVALENT LIGANDS FOR ONCOGENIC AND IMMUNOLOGICAL PROTEINS” (The Scripps Research Institute, priority 2021, published 2025).
Values belong to the compound of their own block, whether it stands above or below them. Peptide text beside a SMILES is read from it. * marks the point of attachment. Cbz = O=C(OCc1ccccc1)*

Experiments:
[1] = system: SIINFEKL presentation in E.G7-Ova cells; experiment: FACS analysis with citric acid wash; assay type: cell-based, mouse; settings: 4 h treatment, recovery up to 4 h
Procedure: (§1) E.G7-Ova cells (2 million/mL) were treated with compounds for 4 hours, washed with PBS, and then washed with 1 mL of 131 mM citric acid for 2 minutes, quenched with 1 mL 66 mM NaH2PO4, and then washed with PBS 3 times. Cells were then resuspended in warm RPMI and allowed to recover for the indicated period, after which cells were washed with PBS and transferred to 96 well plates for staining. Each well was washed with 200 μL PBS, and then stained for 20 minutes with 50 μL of staining solution: 1:1000 fixable near-IR LIVE/DEAD stain (Invitrogen) and 1:200 dilution of anti-SIINFEKL (BioLegend) or anti-Kb (BioLegend) antibody in FACS buffer (2% FBS in PBS supplemented with PenStrep and sterile filtered). Additional wells were used as unstained or singly-stained controls. After staining, cells were washed with PBS, then fixed in 200 μL 4% paraformaldehyde in PBS for 15 minutes. Cells were resuspended in 75 μL FACS buffer and analyzed on a Novocyte flow cytometer. The corresponding data in FIG. 2J are presented as the average percentage of median fluorescence intensity relative to DMSO treated control±SD from n=4 replicates. The corresponding data in FIG. 2K are presented as the average percentage of MFI relative to DMSO treated control±SD from n=3 replicates. Statistical analysis was performed using GraphPad PRISM Version 9.0.0.

[2] = system: overall MHC-I presentation in E.G7-Ova cells; experiment: FACS analysis with citric acid wash; assay type: cell-based, mouse; settings: 4 h treatment, recovery up to 4 h
Procedure: as §1

SF3B1 (~150 kDa protein) = biological target: T1, SF3B1 (~150 kDa protein) (Homo sapiens, UniProt O75533+Q7RTV0); experiment: Gel-based ABPP for SF3B1 cysteine engagement; assay type: binding; settings: 22Rv1 cells, 1 μM alkyne probe, 1 h
T1 construct: Cysteine engagement data from 22Rv1 cells treated; endogenous in cells; host or cells: 22Rv1
T1 sequence (O75533 whole entry): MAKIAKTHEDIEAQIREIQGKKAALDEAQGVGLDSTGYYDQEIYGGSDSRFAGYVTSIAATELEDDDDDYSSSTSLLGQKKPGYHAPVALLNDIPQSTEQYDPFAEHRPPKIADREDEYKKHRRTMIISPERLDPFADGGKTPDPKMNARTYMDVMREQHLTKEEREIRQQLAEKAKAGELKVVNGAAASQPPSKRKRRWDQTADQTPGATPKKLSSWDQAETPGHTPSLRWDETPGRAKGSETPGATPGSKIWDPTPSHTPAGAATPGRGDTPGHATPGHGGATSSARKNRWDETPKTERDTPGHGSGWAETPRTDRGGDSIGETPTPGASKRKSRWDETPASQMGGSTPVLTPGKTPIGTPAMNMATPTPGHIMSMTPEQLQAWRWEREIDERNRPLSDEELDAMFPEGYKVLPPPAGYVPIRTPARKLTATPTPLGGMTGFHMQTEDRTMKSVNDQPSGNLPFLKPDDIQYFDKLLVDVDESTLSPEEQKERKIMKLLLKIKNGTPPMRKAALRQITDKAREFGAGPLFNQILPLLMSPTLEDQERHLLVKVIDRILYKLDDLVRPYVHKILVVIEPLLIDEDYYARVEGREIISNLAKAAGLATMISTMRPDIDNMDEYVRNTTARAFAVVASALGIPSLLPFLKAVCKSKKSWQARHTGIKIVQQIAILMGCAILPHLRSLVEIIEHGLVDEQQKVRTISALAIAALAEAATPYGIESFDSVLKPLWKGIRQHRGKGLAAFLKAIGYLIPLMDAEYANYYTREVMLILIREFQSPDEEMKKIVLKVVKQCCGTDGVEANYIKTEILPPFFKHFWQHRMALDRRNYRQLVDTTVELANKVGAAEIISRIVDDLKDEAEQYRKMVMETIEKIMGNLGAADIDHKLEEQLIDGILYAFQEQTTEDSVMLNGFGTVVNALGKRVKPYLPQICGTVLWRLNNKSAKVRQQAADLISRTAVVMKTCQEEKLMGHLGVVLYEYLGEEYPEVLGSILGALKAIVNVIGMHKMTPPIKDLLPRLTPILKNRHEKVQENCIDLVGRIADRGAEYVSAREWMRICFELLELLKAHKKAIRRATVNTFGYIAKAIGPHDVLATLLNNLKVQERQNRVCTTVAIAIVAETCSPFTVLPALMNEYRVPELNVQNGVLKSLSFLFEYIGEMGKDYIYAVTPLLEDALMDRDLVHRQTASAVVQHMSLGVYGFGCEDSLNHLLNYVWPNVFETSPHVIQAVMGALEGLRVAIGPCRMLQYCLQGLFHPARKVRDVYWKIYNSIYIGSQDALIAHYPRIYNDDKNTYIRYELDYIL
T1 sequence (Q7RTV0 whole entry): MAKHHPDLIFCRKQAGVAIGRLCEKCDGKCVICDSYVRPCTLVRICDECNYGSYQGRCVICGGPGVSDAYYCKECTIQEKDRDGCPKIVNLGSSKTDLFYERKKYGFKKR
T1 sequence (Q15393 whole entry partner): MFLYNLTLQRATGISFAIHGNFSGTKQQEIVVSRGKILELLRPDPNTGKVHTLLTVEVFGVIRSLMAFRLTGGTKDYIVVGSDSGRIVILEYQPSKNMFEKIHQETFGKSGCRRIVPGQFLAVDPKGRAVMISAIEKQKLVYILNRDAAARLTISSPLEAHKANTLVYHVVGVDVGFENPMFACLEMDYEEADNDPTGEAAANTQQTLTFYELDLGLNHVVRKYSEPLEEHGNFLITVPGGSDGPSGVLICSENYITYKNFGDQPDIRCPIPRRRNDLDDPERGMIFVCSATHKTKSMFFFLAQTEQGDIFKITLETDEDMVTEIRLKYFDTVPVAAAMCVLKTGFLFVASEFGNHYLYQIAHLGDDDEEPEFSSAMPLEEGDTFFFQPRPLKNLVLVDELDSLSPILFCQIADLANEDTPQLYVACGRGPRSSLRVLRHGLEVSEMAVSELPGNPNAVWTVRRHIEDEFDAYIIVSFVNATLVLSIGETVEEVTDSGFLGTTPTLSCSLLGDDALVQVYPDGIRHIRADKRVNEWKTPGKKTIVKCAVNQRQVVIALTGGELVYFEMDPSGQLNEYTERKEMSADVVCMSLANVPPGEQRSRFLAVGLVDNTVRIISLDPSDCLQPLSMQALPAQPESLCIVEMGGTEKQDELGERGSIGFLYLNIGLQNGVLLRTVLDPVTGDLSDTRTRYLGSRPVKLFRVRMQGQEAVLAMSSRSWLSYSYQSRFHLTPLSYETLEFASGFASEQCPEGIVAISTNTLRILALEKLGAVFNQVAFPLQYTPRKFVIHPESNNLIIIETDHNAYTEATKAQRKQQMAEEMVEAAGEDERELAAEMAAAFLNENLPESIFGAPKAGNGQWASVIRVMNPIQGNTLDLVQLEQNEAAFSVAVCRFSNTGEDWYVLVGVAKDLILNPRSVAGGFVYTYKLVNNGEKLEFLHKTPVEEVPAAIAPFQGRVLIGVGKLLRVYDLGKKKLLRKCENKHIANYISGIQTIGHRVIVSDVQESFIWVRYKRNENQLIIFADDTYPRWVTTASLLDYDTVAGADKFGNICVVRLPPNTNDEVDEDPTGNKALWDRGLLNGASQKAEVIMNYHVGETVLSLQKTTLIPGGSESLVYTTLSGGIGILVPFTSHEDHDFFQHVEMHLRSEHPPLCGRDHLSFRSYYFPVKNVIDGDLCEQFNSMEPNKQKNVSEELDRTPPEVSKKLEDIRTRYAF
T1 sequence (Q9BWJ5 whole entry partner): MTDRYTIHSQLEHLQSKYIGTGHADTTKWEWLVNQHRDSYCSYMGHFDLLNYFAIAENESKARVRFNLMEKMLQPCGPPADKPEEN
Procedure: 22Rv1 cells were treated with indicated compounds for 24 h, chased with click probe for 1 h in situ, harvested and lysed in PBS with protease inhibitors (cOmplete), and then normalized to 2.0 mg/mL. Reagents for the CuAAC click reaction were pre-mixed prior to addition to the samples (3 μL of click reaction mix for 25 μL of lysate). After 1 hour of click labeling, 4×SDS running buffer was added to samples, which were then analyzed by SDS-PAGE.

22Rv1 cells = experiment: Proliferation assay (CellTiter Glo); assay type: cell-based, human; settings: 72 h
Procedure: Cells were seeded at 5000 cells per well (50 μL medium) in 96-well flat bottom white wall plates. After 24 h, 50 μL of medium containing DMSO or compound dilutions (2× final concentration from 1000× stocks) were added to the wells. At the time of compound addition, a reference plate to determine the cell population density at time 0 (TO) was assayed using CellTiter Glo reagent (50 μL added to each well). After 72 h in culture, the remaining plates were assayed using CellTiter Glo. After 30 min of shaking at room temperature, luminescence was analyzed using a CLARIOstar (BMG Labtech) plate reader. Raw values were normalized using GraphPad PRISM software version 9.0.0. Lines of best fit were generated using a four-parameter variable slope least squares regression.

p27 = experiment: anti-p27 western blot; assay type: cell-based, human; settings: 22Rv1 cells, 24 h
[3] = system: mRNA splicing in 22Rv1 cells; experiment: RNA sequencing, alternative splicing (rMATS); assay type: cell-based, human; settings: 8 hr, RNA-seq
Procedure: RNA sequencing libraries were prepared using the NEBNext Ultra II RNA Library Prep Kit for Illumina following manufacturer's instructions (NEB, Ipswich, MA, USA). mRNAs were first enriched with Oligo(dT) beads. Enriched mRNAs were fragmented for 15 minutes at 94° C. First strand and second strand cDNAs were subsequently synthesized. cDNA fragments were end repaired and adenylated at 3′ends, and universal adapters were ligated to cDNA fragments, followed by index addition and library enrichment by limited-cycle PCR. The sequencing libraries were validated on the Agilent TapeStation (Agilent Technologies, Palo Alto, CA, USA), and quantified by using Qubit 2.0 Fluorometer (Invitrogen, Carlsbad, CA) as well as by quantitative PCR (KAPA Biosystems, Wilmington, MA, USA). FASTQ files were first trimmed using Trim_galore (v0.6.4) to remove sequencing adapters and low quality (Q<15) reads. Trimmed sequencing reads were aligned to the human Hg19 reference genome (GENCODE, GRCh37.p13) using STAR (v2.7.5). SAM files were subsequently converted to BAM files, sorted, and indexed using samtools (v1.9). […] Read counting across genomic features was performed using featureCounts (part of the subread package; v1.5.0) using the following parameters: -p -T 20 -O -F GTF -t exon. […]
For quantification of alternative RNA splicing, BAM files generated by STAR/Samtools were analyzed using rMATS (v4.1.1) using the GENCODE (v19) GTF annotation for Hg19 (GRCh37.p13) and the following parameters: -t paired --libType fr-unstranded—readLength 150—novelSS. To utilize reads shorted than 150b.p. resulting from adapter and/or QC trimming by trim_galore, rMATS was programmed to accept soft-clipped reads of variable length. Enumeration of isoform counts was performed using only reads that span the splice junction directly. To identify high confidence AS events, events were considered significant if (i) the inclusion level difference was greater than 20% compared to DMSO, (ii) the False Discovery Rate (FDR) was smaller than 0.05, and (iii) there were a minimum of 20 reads mapping to the splice junction. […]

[4] = system: SF3B1 interacting proteins; experiment: SF3B1 co-immunoprecipitation-MS; assay type: cell-based, human; settings: HEK293T cells, 5 μM WX-02-23 or 10 nM pladienolide B, 3 h
Procedure: HEK293T cells were treated in situ with DMSO, 5 μM of WX-02-23/WX-02-43, or 10 nM pladienolide B for 3 hours. Cells were harvested, washed with ice-cold PBS, and lysed in ColP lysis buffer (0.5% NP-40, 100 mM EPPS, 150 mM NaCl, cOmplete protease inhibitor). Lysates centrifuged at 16,000 g for 3 minutes, normalized to 2.0 mg/mL and 500 μL of each lysate was aliquoted to a clean eppendorf tube.
Lysates were incubated with 5 μL of anti-IgG or anti-SF3B1 (CST) for 2 hours at 4 C, followed by 1 hour with 25 μL of protein-A agarose beads. Bead were washed twice with ColP lysis buffer, and then twice with 100 mM EPPS, followed by elution with 8 M urea in EPPS at 65 C for 10 min. […] Samples were then trypsinized at 37 C overnight (2 ug of trypsin per sample), then TMT labeled and desalted.

[5] = biological target: T2, recombinant FLAG-PSME1 (PSME1_C22) (Homo sapiens, UniProt Q06323); experiment: Gel-based ABPP for PSME1 cysteine engagement; assay type: binding; settings: HEK293T lysates, WT or C22A FLAG-PSME1, 2.5 μM, 30 min
T2 construct: FLAG (C); expressed in transfected cells; host or cells: HEK293T (lysate treated in vitro)
T2 sequence (Q06323 whole entry): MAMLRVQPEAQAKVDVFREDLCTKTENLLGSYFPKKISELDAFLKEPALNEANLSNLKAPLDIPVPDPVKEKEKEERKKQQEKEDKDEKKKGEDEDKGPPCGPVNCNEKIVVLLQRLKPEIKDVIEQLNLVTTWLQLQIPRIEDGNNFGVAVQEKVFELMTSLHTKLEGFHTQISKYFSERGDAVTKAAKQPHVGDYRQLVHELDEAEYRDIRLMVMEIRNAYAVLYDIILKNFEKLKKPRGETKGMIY
Procedure: C-terminally FLAG-tagged PSME1 WT or C22A were transiently expressed in HEK293T cells, harvested 48 hours later, then cells were divided into aliquots, flash frozen and stored at −80 C. On the day of the experiment, an aliquot of cells were thawed, lysed by sonication in ice-cold PBS supplemented with cOmplete protease inhibitors (1 tablet/10 mL of PBS). normalized to 2.0 mg/mL, and divided into 25 μL aliquots. 1 μL of DMSO or compound (25× stock) was incubated with lysates for 1.5 hours at RT, followed by incubation with 1 μL of 62.5 μM MY-11B click probe (final concentration […]) for an additional 30 minutes. Reagents for the CuAAC click reaction were pre-mixed prior to addition to the samples. After 1 hour of click labeling, 4×SDS running buffer was added to samples, which were then analyzed by SDS-PAGE. ImageJ was used to quantify rhodamine band intensities, and GraphPad PRISM Version 9.0.0 was used to generate IC50 curves (four-parameter variable slope least squares regression).

Compound: CC(C)C[C@@H](C=O)NC(=O)[C@H](CC(C)C)NC(=O)[C@H](CC(C)C)NC(=O)OCc1ccccc1 [MG132, reference compound] (Cbz-Leu-Leu-Leu-aldehyde)
SIINFEKL presentation after acid wash [1]: suppressed both SIINFEKL peptide and MHC-I presentation
overall MHC-I presentation after acid wash [2]: suppressed both SIINFEKL peptide and MHC-I presentation

alkyne probe labeling of ~150 kDa protein (SF3B1 (~150 kDa protein)): labeled an ˜150 kDa protein
Compound: C#CCOc1ccc2[nH]c3c(c2c1)C[C@@H](C(=O)OC)N(C(=O)C=C)[C@@H]3c1ccc2c(c1)OCO2 [WX-01-10, methyl (1R,3S)-2-acryloyl-1-(benzo[d][1,3]dioxol-5-yl)-6-(prop-2-yn-1-yloxy)-2,3,4,9-tetra-hydro-1H-pyrido[3,4-b]indole-3-carboxylate]

Compound: pladienolide B [reference compound]
anti-proliferative effect (22Rv1 cells): strong anti-proliferative activity
p27 expression (p27): induced expression of p27
mRNA splicing changes [3]: induction of both intron retention and exon skipping events
SF3B1 interactions (DDX42 association) [4]: similar, but not identical reshaping of SF3B1 interactions

Compound: C#Cc1ccc([C@H]2CN(C(=O)C=C)[C@H]2C(=O)Nc2cccc3cccnc23)cc1 [MY-11B, (2R,3S)-1-acryloyl-3-(4-ethynylphenyl)-N-(quinolin-8-yl)azetidine-2-carboxamide]
alkyne probe labeling of PSME1_C22 (CuAAC, azide-rhodamine) [5]: site-specific and stereoselective engagement
